Where a name gives a salt, the structure may show the parent alone.
Key:
Mcl-1 protein = Mcl-1 protein (Homo sapiens, UniProt Q07820); experiment: Inhibition of Mcl-1 by the fluorescence polarisation technique; format: binding; conditions: fluorescence polarisation test; Fluorescein labelled ligand 1 nM, Mcl-1 protein 5 nM, ~2 hours at r.t.; read-out: IC50 (M) Mcl-1 FP
Protocol: The relative binding potency of each compound was determined via Fluorescence Polarisation (FP). The method utilised a Fluorescein labelled ligand (Fluorescein-βAla-Ahx-A-REIGAQLRRMADDLNAQY-OH; mw 2,765) which binds to the Mcl-1 protein (such that Mcl-1 corresponds to the UniProtKB® primary accession number: Q07820) leading to an increased anisotropy measured in milli-polarisation (mP) units using a reader. The addition of a compound which binds competitively to the same site as the ligand will result in a greater proportion of unbound ligand in the system indicated by a decrease in mP units.
An 11 point serial dilution of each compound was prepared in DMSO and 2 μl transferred into flat bottomed, low binding, 384-well plate (final DMSO concentration 5%). 38 μl of buffer (10 mM 4-(2-hydroxyethyl)-1-piperazineethanesulfonic acid [HEPES], 150 mM NaCl, 0.05% Tween 20, pH 7.4), containing the Fluorescein labelled ligand (final concentration 1 nM) and Mcl-1 protein (final concentration 5 nM) was then added.
Assay plates were incubated ˜2 hours at r.t. before FP was measured on a Biomek Synergy2 reader (Ex. 528 nm, Em. 640 nm, Cut off 510 nm) and mP units calculated. The binding of increasing doses of test compound was expressed as a percentage reduction in mP compared to a window established between ‘5% DMSO only’ and ‘100% inhibition’ controls. 11-point dose response curves were plotted with XL-Fit software using a 4-Parameter Logistic Model (Sigmoidal Dose-Response Model) and the inhibitory concentrations that gave a 50% reduction in mP (IC50) were determined.

H929 cells = experiment: In vitro cytotoxicity (MTT) on H929 multiple myeloma tumour line; format: cell-based; conditions: Microculture Tetrazolium Assay
Protocol: The cytotoxicity studies were carried out on the H929 multiple myeloma tumour line.
The cells are distributed onto microplates and exposed to the test compounds for 48 hours.
The cell viability is then quantified by a colorimetric assay, the Microculture Tetrazolium Assay (Cancer Res., 1987, 47, 939-942).

[1] = Homo sapiens, NCI-H929, exposed 48 hours

Chain of Mcl-1 protein (Q07820 whole entry): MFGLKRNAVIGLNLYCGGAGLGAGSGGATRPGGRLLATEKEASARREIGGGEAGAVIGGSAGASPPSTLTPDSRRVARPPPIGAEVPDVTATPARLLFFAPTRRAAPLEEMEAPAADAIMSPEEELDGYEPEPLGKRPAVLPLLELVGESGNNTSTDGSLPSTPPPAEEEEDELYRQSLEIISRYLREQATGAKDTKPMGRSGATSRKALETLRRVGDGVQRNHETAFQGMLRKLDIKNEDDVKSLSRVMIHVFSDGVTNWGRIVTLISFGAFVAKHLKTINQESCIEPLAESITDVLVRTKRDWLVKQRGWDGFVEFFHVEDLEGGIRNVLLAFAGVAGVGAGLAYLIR

Structure (SMILES)	IC50 (Mcl-1 protein)	IC50 (H929 cells; [1])	IC50 (H929 cells; exposed 48 hours)
Cc1c(-c2c(-c3ccc(F)cc3)sc3ncnc(OC(Cc4ccccc4OCc4ccnc(-c5cccc(COC(=O)N6CCC(N7CCCCC7)CC6)c5)n4)C(=O)O)c23)ccc(OCCN2CCN(C)CC2)c1Cl [Example 37, (2R)-3-(2-{[2-(3-{[(1,4′-bipiperidin-1′-ylcarbonyl)oxy]methyl}phenyl)pyrimidin-4-yl]methoxy}phenyl)-2-{[(5Sa)-5-{3-chloro-2-methyl-4-[2-(4-methylpiperazin-1-yl)ethoxy]phenyl}-6-(4-fluorophenyl)thieno[2,3-d]pyrimidin-4-yl]oxy}propanoic acid]	6.3e-09 M	20.5 nM	
Cc1c(-c2c(-c3ccc(F)cc3)sc3ncnc(OC(Cc4ccccc4OCc4ccnc(-c5ccc(OP(=O)(O)O)cc5)n4)C(=O)O)c23)ccc(OCCN2CCN(C)CC2)c1Cl [Example 57, 4-[4-({2-[(2R)-2-carboxy-2-{[(5Sa)-5-{3-chloro-2-methyl-4-[2-(4-methylpiperazin-1 yl)ethoxy]phenyl}-6-(4-fluorophehnyl)thieno[2,3-d]pyrimidin-4-yl]oxy}ethyl]phenoxy}methyl)pyrimidin-2-yl]phenyl phosphate disodium salt]	4.6e-09 M		22.7 nM
Cc1c(-c2c(-c3ccc(F)cc3)sc3ncnc(OC(Cc4ccccc4OCc4ccnc(-c5ccccc5OCCO)n4)C(=O)O)c23)ccc(OCCN2CCN(C)CC2)c1Cl [Example 26, (2R)-2-{[(5Sa)-5-{3-chloro-2-methyl-4-[2-(4methylpiperazin-1-yl)ethoxy]phenyl}-6-(4-fluorophenyl)thieno[2,3-d]pyrimidin-4-yl]oxy}-3-[2-({2-[2-(2-hydroxyethoxy)phenyl]pyrimidin-4-yl}methoxy)phenyl]propanoic acid]	3.45e-09 M	1.72 nM	
Cc1c(-c2c(-c3ccc(F)cc3)sc3ncnc(OC(Cc4ccccc4OCc4ccnc(-c5cccc(OCC(O)CO)c5)n4)C(=O)O)c23)ccc(OCCN2CCN(C)CC2)c1Cl [Example 47, (2R)-2-{[(5Sa)-5-{3-chloro-2-methyl-4-[2-(4-methylpiperazin-1-yl)ethoxy]phenyl}-6-(4-fluorophenyl)thieno[2,3-d]pyrimidin-4-yl]oxy}-3-[2-({2-[3-(2,3-dihydroxypropoxy)phenyl]pyrimidin-4-yl}methoxy)phenyl]propanoic acid]	4.05e-09 M	18.2 nM	
Cc1c(-c2c(-c3ccc(F)cc3)sc3ncnc(O[C@H](Cc4ccccc4OCc4ccnc(-c5ccc(OCCN(C)C)cc5)n4)C(=O)O)c23)ccc(OCCN2CCN(C)CC2)c1Cl [Example 34, (2R)-2-{[(5Sa)-5-{3-chloro-2-methyl-4-[2-(4-methylpiperazin-1-yl)ethoxy]phenyl}-6-(4-flurophenyl)thieno[2,3-d]pyrimidin-4-yl]oxy}-3-{2-[(2-{4-[2-(dimethylamino)ethoxy]phenyl}pyrimidin-4-yl)methoxy]phenyl}propanoic acid]	7.1e-09 M		4.76 nM
Cc1c(-c2c(-c3ccc(F)cc3)sc3ncnc(OC(Cc4ccccc4OCc4ccnc(-c5ccccc5OCC5COC(C)(C)O5)n4)C(=O)O)c23)ccc(OCCN2CCN(C)CC2)c1Cl [Example 5, (2R)-2-{[(5Sa)-5-{3-chloro-2-methyl-4-[2-(4-methylpiperazin-1-yl)ethoxyl]phenyl}-6-(4-fluorophenyl)thieno[2,3-d]pyrimidin-4-yl]oxy}-3-{2-[(2-{2-[(2,2-dimethyl-1,3-dioxolan-4-yl)methoxyl]phenyl}pyrimidin-4-yl)methoxy]phenyl}propanoic acid]	3.7e-09 M	1.65 nM	
COCC(COC)Oc1cccc(-c2nccc(COc3ccccc3CC(Oc3ncnc4sc(-c5ccc(F)cc5)c(-c5ccc(OCCN6CCN(C)CC6)c(Cl)c5C)c34)C(=O)O)n2)c1 [Example 13, (2R)-2-{[(5Sa)-5-{3-chloro-2-methyl-4-[2-(4-methylpiperazin-1-yl)ethoxy]phenyl}-6-(4fluorophenyl)thieno[2,3-d]pyrimidin-4-yl]oxy}-3-{2-[(2-{3-[(1,3-dimethoxypropan-2-yl)oxy]phenyl}pyrimidin-4-yl)methoxy]phenyl}propanoic acid]	5.1e-09 M	3.59 nM	
Cc1c(-c2c(-c3ccc(F)cc3)sc3ncnc(OC(Cc4ccccc4OCc4ccnc(-c5ccccc5COCC(O)CO)n4)C(=O)O)c23)ccc(OCCN2CCN(C)CC2)c1Cl [Example 27, (2R)-2-{[(5Sa)-5-{3-chloro-2-methyl-4-[2-(4-methylpiperazin-1-yl)ethoxy]phenyl}-6-(4-fluorophenyl)thieno[2,3-d]pyrimidin-4-yl]oxy}-3-{2-[(2-{2-[(2,3-dihydroxypropoxy)methyl]phenyl}pyrimidin-4-yl)methoxy]phenyl}propanoic acid]	2.2e-09 M	13.9 nM	
Cc1c(-c2c(-c3ccc(F)cc3)sc3ncnc(O[C@H](Cc4ccccc4OCc4ccnc(-c5ccccc5OC[C@@H](O)[C@@H](O)[C@H](O)[C@H](O)C(=O)O)n4)C(=O)O)c23)ccc(OCCN2CCN(C)CC2)c1Cl [Example 21]	4.85e-09 M		> 150 nM

More lines, main results first:

IC50 (Mcl-1 protein)	Structure (SMILES)	IC50 (H929 cells; [1])	IC50 (H929 cells; exposed 48 hours)
3.7e-09 M	Cc1c(-c2c(-c3ccc(F)cc3)sc3ncnc(OC(Cc4ccccc4OCc4ccnc(-c5cccc(COC(=O)NCCN6CCCC6)c5)n4)C(=O)O)c23)ccc(OCCN2CCN(C)CC2)c1Cl [Example 44, (2R)-2-{[(5Sa)-5-{3-chloro-2-methyl-4-[2-(4-methylpiperazin-1-yl)ethoxy]phenyl}-6-(4-fluorophenyl)thieno[2,3-d]pyrimidin-4-yl]oxy}-3-{2-[(2-{3-[({[2-(pyrrolidin-1-yl)ethyl]carbamoyl}oxy)methyl]phenyl}pyrimidin-4-yl)methoxy]phenyl}propanoic acid]	28.7 nM	
3.2e-09 M	COCCN(CCOC)C(=O)OCc1cccc(-c2nccc(COc3ccccc3CC(Oc3ncnc4sc(-c5ccc(F)cc5)c(-c5ccc(OCCN6CCN(C)CC6)c(Cl)c5C)c34)C(=O)O)n2)c1 [Example 45, (2R)-3-[2-({2-[3-({[bis(2-methoxyethyl)carbamoyl]oxy}methyl)phenyl]pyrimidin-4-yl}methoxy)phenyl]-2-{[(5Sa)-5-{3-chloro-2-methyl-4-[2-(4-methylpiperazin-1-yl)ethoxy]phenyl}-6-(4-fluorophenyl)thieno[2,3-d]pyrimidin-4-yl]oxy}propanoic acid]	4.58 nM	
4.65e-09 M	Cc1c(-c2c(-c3ccc(F)cc3)sc3ncnc(OC(Cc4ccccc4OCc4ccnc(-c5cccc(COC(=O)NCCOCCOCCOCCO)c5)n4)C(=O)O)c23)ccc(OCCN2CCN(C)CC2)c1Cl [Example 36, (2R)-2-{[(5Sa)-5-{3-chloro-2-methyl-4-[2-(4-methylpiperazin-1-yl)ethoxy]phenyl}-6-(4-fluorophenyl)thieno[2,3-d]pyrimidin-4-yl]oxy}-3-[2-({2-[3-(15-hydroxy-3-oxo-2,7,10,13-tetraoxa-4-azapentadec-1-yl)phenyl]pyrimidin-4-yl}methoxy)phenyl]propanoic acid]	75.9 nM	
3.45e-09 M	Cc1c(-c2c(-c3ccc(F)cc3)sc3ncnc(OC(Cc4ccccc4OCc4ccnc(-c5cccc(COC(=O)NCCN6CCN(C)CC6)c5)n4)C(=O)O)c23)ccc(OCCN2CCN(C)CC2)c1Cl [Example 41, (2R)-2-{[(5Sa)-5-{3-chloro-2-methyl-4-[2-(4-methylpiperazin-1-yl)ethoxy]phenyl}-6-(4-fluorophenyl)thieno[2,3-d]pyrimidin-4-yl]oxy}-3-{2-[(2-{3-[({[2-(4-methylpiperazin-1-yl)ethyl]carbamoyl}oxy)methyl]phenyl}pyrimidin-4-yl)methoxy]phenyl}propanoic acid]	90.8 nM	
1.09e-08 M	Cc1c(-c2c(-c3ccc(F)cc3)sc3ncnc(OC(Cc4ccccc4OCc4ccnc(-c5ccccc5COCCO)n4)C(=O)O)c23)ccc(OCCN2CCN(C)CC2)c1Cl [Example 10, (2R)-2-{[(5Sa)-5-{3-chloro-2-methyl-4-[2-(4-methylpiperazin-1-yl)ethoxy]phenyl}-6-(4-fluorophenyl)thieno[2,3-d]pyrimidin-4-yl]oxy}-3-{2-[(2-{2-[(2-hydroxyethoxy)methyl]phenyl}pyrimidin-4-yl)methoxy]phenyl}propanoic acid]	2.79 nM	
3.05e-09 M	Cc1c(-c2c(-c3ccc(F)cc3)sc3ncnc(OC(Cc4ccccc4OCc4ccnc(-c5cccc(OCCOCCO)c5)n4)C(=O)O)c23)ccc(OCCN2CCN(C)CC2)c1Cl [Example 39, (2R)-2-{[(5Sa)-5-{3-chloro-2-methyl-4-[2-(4-methylpiperazin-1-yl)ethoxy]phenyl}-6-(4-fluorophenyl)thieno[2,3-d]pyrimidin-4-yl]oxy}-3-{2-[(2-{3-[2-(2-hydroxyethoxy)ethoxy]phenyl}pyrimidin-4-yl)methoxy]phenyl}propanoic acid]	3.25 nM	

Source: patent US10322131B2, “Hydroxyacid derivatives, a process for their preparation and pharmaceutical compositions containing them” (LES LABORATOIRES SERVIER, priority 2015, dated 2019)
